Experimental data reported in the NIST ThermoML archive (doi:10.1016/j.fluid.2014.01.038).

Assay: cn = amount concentration of the nth substance listed, in mol/dm3
Settings: 101 kPa, Liquid, Alternating current cell with electrodes

CCCCCCCCCCCCn1cc[n+](C)c1.[Br-] [1-dodecyl-3-methylimidazolium bromide] + O
electrical conductivity [S/m]
Settings | 283.15 K | 288.15 K | 293.15 K | 298.15 K | 303.15 K | 308.15 K
c1 = 0.0006629 | 0.00432 | 0.00491 | 0.0055 | 0.00613 | 0.00676 | 0.00742
c1 = 0.001064 | 0.00695 | 0.00789 | 0.00894 | 0.00994 | 0.011 | 0.0121
c1 = 0.001497 | 0.0098 | 0.0111 | 0.0125 | 0.0139 | 0.0154 | 0.0169
c1 = 0.00184 | 0.012 | 0.0136 | 0.0153 | 0.017 | 0.0188 | 0.0201
c1 = 0.002146 | 0.014 | 0.0158 | 0.0178 | 0.0198 | 0.0216 | 0.0237
c1 = 0.00249 | 0.0158 | 0.0178 | 0.0201 | 0.0222 | 0.0247 | 0.0273
c1 = 0.002909 | 0.0168 | 0.019 | 0.0212 | 0.0239 | 0.027 | 0.0304
c1 = 0.003361 | 0.0175 | 0.0198 | 0.0222 | 0.0251 | 0.0284 | 0.0321
c1 = 0.003884 | 0.0183 | 0.0204 | 0.0233 | 0.0264 | 0.0299 | 0.0338
c1 = 0.00448 | 0.0192 | 0.0215 | 0.0244 | 0.0279 | 0.0315 | 0.0358
c1 = 0.004998 | 0.0199 | 0.0224 | 0.0256 | 0.0291 | 0.033 | 0.0374
c1 = 0.005625 | 0.0206 | 0.0236 | 0.0269 | 0.0305 | 0.0347 | 0.0394
